Measurements published in patent publication US20250052985A1, “SYSTEM AND METHOD FOR QUANTITATIVE PHASE IMAGING FOR MULTI-PARAMETRIC SCREENING OF TUMOR THERAPY RESPONSE” (UNIVERSITY OF UTAH RESEARCH FOUNDATION, priority 2023, published 2025).
Values joined by “and” are separate entries in the source; they are usually repeats but may differ in a detail not shown here. Identical values can stand only once.

Legend:
[1] = tested on: MCF-7 cells; assay: CellTiter-Glo (CTG) ATP viability assay, MCF-7; format: cell-based; conditions: for Min Asymptote: MCF-7, Hill fit of luminescence normalized to solvent control, one line per replicate
Protocol: (§1) CTG (e.g., read by the CTG reader 115) is a cell viability assay that quantifies the amount of ATP present at the end of an experiment as an indicator of the number of live cells. The electronic controller 155 measures ATP content in each condition as a readout by a luminescent signal, which is normalized by the luminescence of the control (e.g., a control well) to determine cell viability relative to on-plate controls. In some embodiments, the CTG assay is performed by first removing 100 μL of media from each well on the well-plate 105, which is then replaced with an equal amount of CellTiter-Glo reagent (e.g., Promega, G7572). Assayed plates may be shaken at 500 RPM for 20 minutes and allowed to rest for 10 minutes. In some instances, 100 μL of volume from each well is transferred to a white 96-well plate (e.g., Perkin Elmer, 6005680). The electronic controller 155 collects luminescence data from each well using an Envision plate reader (e.g., Perkin Elmer) and normalized against the solvent control to measure ATP content. The electronic controller 155 fits a 4-parameter hill curve to the dose response to determine the EC50 and depth of response.

[2] = tested on: MCF-7 cells; assay: cells
Excerpt: (§2) In some embodiments, breast cancer cell lines are imaged, representing diverse clinical subtypes, summarized in Table 2 below, using a QPI microscope (FIG. 1A) based on differential phase contrast (DPC) microscopy and phase reconstruction via a QPI microscope system. DPC is used for image acquisition and phase reconstruction because DPC's flexible design may be customized for high throughput phase measurements. […] As illustrated in the embodiment of FIG. 1A, a QPI microscope system 100 conducts assays in a 96-well plate (e.g., a well-plate 105) with 6-point dose response curves and up to five therapies in triplicate including solvent controls, summarized in Table 4 below. As described below, in reference to FIG. 1A, a growth response of cells is measured noninvasively using QPI via a QPI microscope system 110 before being assayed using a CTG reader 115.
(§3) FIG. 1B illustrates a timeline plot 200 showing two plates (e.g., two, separate well-plates 105) set up in parallel to measure cell viability. With reference to FIG. 1B, two plates are set-up simultaneously for each experiment. A first plate 205 is incubated for 27 hours (h) post drug exposure prior to CTG analysis (3 h equilibration+24 h of imaging), which measures cell adenosine triphosphate (ATP) content as a surrogate for cell viability. A second plate 210 is imaged for 72 h after 3 h equilibration (e.g., 75 h) and followed by CTG. […] The imaging locations are imaged for 72 h, as shown by images 1700-1715 of FIG. 7.
(§4) In some embodiments, a dose-dependent change in growth, as indicated by a change in the rate of mass accumulation or loss, is a parameter that can be extracted from QPI dose-response data. […] Individual specific growth rate measurements are indicated by points in the distribution of the graph 1200 of FIG. 2A. Blue is indicative of the DMSO control and red is indicative of doxorubicin. The black outline is a kernel density function fit to the distribution of specific growth rates for each condition (e.g., *p<0.05, **p<0.01). In some embodiments, the average SGR of each condition is fit to a sigmoid dose-response curve using a Hill equation. For example, computed logistic fit parameters using a 4-parameter Hill model via the QPI microscope system 110 for all conditions are summarized in Tables 5-8 below. To determine if there is a response, as illustrated by FIG. 2B, the QPI microscope system 110 tests goodness of fit, adjusts for degrees of freedom using an F-test at significance p<0.01 by comparison to a flat line, as an indicator of no response. For cases with a better fit to the Hill equation, the 4-parameter Hill curve may be used by the QPI microscope system 110 to determine the EC50, a measure of sensitivity to therapy because it represents the effective concentration at which 50% of the cells respond to therapy, as illustrated by FIG. 10. […] A 4-parameter Hill curve is fit to each dose response plot to extract the depth of response and EC50 for each cell/drug pair. A flat line represents no response due to failure of the F-test to reject the null hypothesis that the logistic fit is indistinguishable from a flat line. […] Each color indicates a different drug or therapy used.

[3] = tested on: BT-474 cells; assay: cells; conditions: for Max Asymptote / Min Asymptote: BT-474, 4-parameter Hill fit of mean SGR vs concentration, one line per replicate; for Hill Slope / log10(EC50): BT-474, Hill fit; for log10(EC50): EC50 in μM per Table 1
Excerpt: as §2, §3, §4

[4] = tested on: MDA-MB-231 cells; assay: Quantitative phase imaging (QPI) growth response, MDA-MB-231; format: cell-based; set-up: DoR QPI: scale not given here; ToR 20 μM: unit not given here; conditions: for Max Asymptote / Min Asymptote: MDA-MB-231, 4-parameter Hill fit of mean SGR vs concentration, one line per replicate; for log10(EC50): EC50 in μM per Table 1
Excerpt: as §2, §3, §4

[5] = tested on: MDA-MB-231 cells; assay: CellTiter-Glo (CTG) ATP viability assay, MDA-MB-231; format: cell-based; conditions: for Min Asymptote: MDA-MB-231, Hill fit of luminescence normalized to solvent control, one line per replicate
Protocol: as §1

With `CCC(=C(c1ccc(O)cc1)c1ccc(OCCN(C)C)cc1)c1ccccc1` [4HT, 4-hydroxy-Tamoxifen] the “Min Asymptote” value ([1]; 24 h CTG) was 7.96E−12 and 5.22E−09, the “log10(EC50)” value ([1]; 72 h CTG, MCF-7, Hill fit) was −0.5373 and −0.5549 and −0.6776 and the “Min Asymptote” value ([1]; 72 h CTG) was 2.23E−14 and 2.22E−14 and 3.01E−12. The EC50 ([1]; MCF-7 cell line, CellTiter-Glo, read-out: EC50, CTG (converted)) was 3.9 µM, the “DoR CTG” value ([1]; MCF-7 cell line, depth of response, CellTiter-Glo) was 1.0 and the “Max Asymptote” value ([2]; 24 h QPI, MCF-7, 4-parameter Hill fit of mean SGR vs concentration, one line per replicate) was 0.02753 and 0.02505 (2×). For the same compound, the “log10(EC50)” value ([2]; 24 h QPI, MCF-7, Hill fit, EC50 in μM per Table 1) was −1.3545, the “Min Asymptote” value ([2]; 72 h QPI, MCF-7, 4-parameter Hill fit of mean SGR vs concentration, one line per replicate) was 0.02137 and 0.02094 and 0.02499 and the “DoR QPI” value ([2]; MCF-7 cell line, depth of response, QPI) was 2.1. For the same compound, the “ToR 20 μM” value ([2]; MCF-7 cell line, time of response at 20 μM) was −1.3078, the EC50 ([2]; read-out: EC50, QPI, MCF-7 cell line, QPI growth rate) was 75.2 µM and the “Max Asymptote” value ([3]; 24 h QPI) was 0.01232 and 0.00969 and 0.009107. For the same compound, the “Min Asymptote” value ([3]; 24 h QPI) was −0.01613 and −0.02375 and −0.02493, the “Hill Slope” value ([3]; 24 h QPI) was 2.303 and 3.2307 and 3.3723 and the “log10(EC50)” value ([3]; 24 h QPI) was −1.1593 and −1.2498 and −1.2667. For the same compound, the “Max Asymptote” value ([3]; 72 h QPI) was −0.01224 and −0.01212 and −0.01166, the “Min Asymptote” value ([3]; 72 h QPI) was 0.009052 and 0.007511 and 0.008099 and the “Hill Slope” value ([3]; 72 h QPI) was 3.3746 and 3.7567 and 4.6177. The “log10(EC50)” value ([3]; 72 h QPI) was −1.2566 and −1.2595 and −1.2511, the “response of growth rate and heterogeneity to treatment” value ([3]; BT-474, FIG. 5E, 22, 23) was “both reduced growth rate and slightly increased heterogeneity” and the “growth rate and heterogeneity as concentration increases” value ([3]; BT-474, FIG. 22) was “decrease in growth rate at approximately constant standard deviation”. The “growth rate and heterogeneity over time” value ([3]; BT-474, FIG. 23 Graph F) was “first experiencing reduced growth rate, and then a large spike in heterogeneity”, the “DoR QPI” value ([3]; BT-474 cell line, depth of response, QPI) was 2.5 and the “ToR 20 μM” value ([3]; BT-474 cell line, time of response at 20 μM) was −0.9815. The EC50 ([3]; read-out: EC50, QPI, BT-474 cell line, QPI growth rate) was 18 µM, the “Max Asymptote” value ([4]; 24 h QPI) was 0.02875 and 0.03107 and 0.03303 and the “Min Asymptote” value ([4]; 24 h QPI) was 0.007676 and 0.007611 and −0.003024. For the same compound, the “log10(EC50)” value ([4]; 24 h QPI, MDA-MB-231, Hill fit) was −1.2332 and −1.2248 and −1.2436, the “Max Asymptote” value ([4]; 72 h QPI) was −0.006134 and −0.01506 and −0.008455 and the “Min Asymptote” value ([4]; 72 h QPI) was 0.02885 and 0.03029 and 0.03246. For the same compound, the “Hill Slope” value ([4]; 72 h QPI, MDA-MB-231, Hill fit) was 2.0951 and 2.4347 and 1.6101, the “log10(EC50)” value ([4]; 72 h QPI, MDA-MB-231, Hill fit) was −1.2344 and −1.2249 and −1.0505 and the “growth rate and heterogeneity over time” value ([4]; MDA-MB-231, highest concentration, FIG. 21 F) was “first decreases in growth rate and then decreases in heterogeneity”. The “mean SGR vs SD of growth parameterized by time” value ([4]; MDA-MB-231, maximal concentration, FIG. 5D) was “reduction in growth rate before heterogeneity is affected”, the EC50 ([4]; MDA-MB-231 cell line, QPI growth rate, read-out: EC50, QPI) was 15.1 µM and the “DoR QPI” value ([4]; MDA-MB-231 cell line, depth of response, QPI) was 1.3. The “ToR 20 μM” value ([4]; MDA-MB-231 cell line, time of response at 20 μM) was 1.0, the “Hill Slope” value ([5]; 24 h CTG, MDA-MB-231, Hill fit) was 5.351 and the “log10(EC50)” value ([5]; 24 h CTG, MDA-MB-231, Hill fit) was −0.5158. For the same compound, the “Min Asymptote” value ([5]; 24 h CTG) was 0.393, the “log10(EC50)” value ([5]; 72 h CTG, MDA-MB-231, Hill fit) was −0.9458 and the “Min Asymptote” value ([5]; 72 h CTG) was 0.003315 and 0.01516 (2×). The EC50 ([5]; MDA-MB-231 cell line, CellTiter-Glo, read-out: EC50, CTG) was 6.9 µM and the “DoR CTG” value ([5]; MDA-MB-231 cell line, depth of response, CellTiter-Glo) was 1.0.
